Results: publication PMC10467082, “Anti-Toxoplasma gondii Effects of Lipopeptide Derivatives of Lycosin-I” (Toxins, 2023)

Tests used:
T. gondii tachyzoites [1] = type: cell-based, Toxoplasma gondii
Description: The HFF cells were seeded in 6-well plates (1 × 10^6 cells per well) and incubated for 48–72 h. Cells in the 6-well plates were infected with 500 fresh tachyzoites per well for 2 h. The well in which cells were not infected with tachyzoites was considered the blank control group. Cells infected with tachyzoites were then treated with Lycosin-I (10 μM), L-C12 (10 μM), L-an (10 μM), SDZ (10 μM, positive control) and DMEM (negative control), respectively. After 7 days, HFFs in the plates were washed twice with PBS, fixed with methanol for 5 min, and then stained with crystal violet for 20 min. Six-well plates were washed with running water, dried, photographed, and then the number and area of plaques were counted using Photoshop version 2020. Three independent experiments were carried out.

RH strain of T. gondii = type: in vivo, mouse; conditions: mouse, in vivo, ip, 4 mg/kg/day
Description: To evaluate the anti-T. gondii effect of lipopeptides in vivo, we established a mouse model acutely infected with the RH strain of T. gondii. Forty 8-week-old female BALB/c mice weighing 17–19 g were randomly divided into 5 groups (n = 8 per group) and intraperitoneally injected with 1 × 10^3 tachyzoites per mouse. Lycosin-I, L-C12, L-an and sulfadiazine (SDZ) were dissolved in PBS, respectively. As these peptides are small linear peptides that are easily degraded by pepsin; mice were treated with these peptides via intraperitoneal injection (the same way that the mice were infected with T. gondii) rather than oral gavage. After 4 h of infection, mice were traperitoneally injected with 4 mg/kg of Lycosin-I, L-C12, L-an and sulfadiazine solution (once a day) for 7 days. Mice in the negative control group were treated with PBS. Mice in this condition observed daily and the time of death was recorded. The experiment was approved by the Ethics Committee of the School of Basic Medicine of Central South University (approval number: 2021-KT24).

T. gondii tachyzoites [2] = conditions: mouse, in vivo
Description: Therefore, the mice were treated with 4 mg/kg/day of SDZ or lipopetides for 7 days, and the survival time of the mice was closely monitored for 15 days. […] We also determined the parasite load in the peritoneal fluid and tissues of mice acutely infected with T. gondii after 5 days of treatment. The number of tachyzoites in the peritoneal fluid of the mice was directly counted using a blood cell counting plate (Figure 4B), while the expression of the surface antigen SAG1, a membrane surface protein specific to tachyzoites, was detected via qRT-PCR in the heart, liver, spleen, lung and brain of the mice (Figure 4C–G).
(§1) Total RNA was extracted from each sample using Total RNA Isolation Kit (ENOVA BIO Co., Ltd., Wuhan, China), in accordance with the manufacturer’s instructions. Reverse transcription of RNA into cDNA was performed using the PerfectStart Uni RT&qPCR Kit (TransGen Biotech Co., Ltd., Beijing, China) in accordance with the instructions. cDNA was used as a template for qRT-PCR using PerfectStart Uni RT&qPCR Kit (TransGen Biotech Co., Ltd., Beijing, China). Primers, listed in Table 2, were designed and synthesized by a biotechnology company (Sangon Biotech Co., Ltd., Shanghai, China). Analysis was performed using the comparative threshold cycle method (2^−∆∆Ct). The gene expression levels of genes were normalized to those of housekeeping genes (β-actin or GAPDH).

IFN-γ = type: in vivo, mouse; conditions: mouse, in vivo
Description: (§2) Once T. gondii has infected a host, a number of inflammatory responses can be induced in the host to resist T. gondii invasion and proliferation. Therefore, we wanted to investigate the expression levels of anti-inflammatory and pro-inflammatory factors in the mice treated with lipopeptides. The expression levels of IFN-γ, TNF-α, IL-4 and IL-10 in the spleen tissues of mice after 5 days of treatment were determined via qRT-PCR (Figure 5). […] Compared to the PBS group, all treatment groups promoted the upregulation of the pro-inflammatory cytokines IFN-γ and TNF-α and the anti-inflammatory cytokine IL-4.
as §1

IL-10 = type: in vivo, mouse; conditions: mouse, in vivo
Description: as §2, §1

IL-4 = type: in vivo, mouse; conditions: mouse, in vivo
Description: as §2, §1

TNF-α = type: in vivo, mouse; conditions: mouse, in vivo
Description: as §2, §1

Toxoplasma [3] = conditions: cited from earlier work
Text: To evaluate the efficacy of the lipopeptides in vivo, we established a mouse model of acute T. gondii infection.

Toxoplasma [4] = conditions: mouse; cited from earlier work
Text: We established a mouse model acutely infected with tachyzoites, recorded the survival time of the mice and determined the parasite load in the tissues of the mice. Lycosin-I and L-an can effectively prolong the survival time of mice.

Nc1ccc(S(=O)(=O)Nc2ncccn2)cc1 [SDZ, Sulfadiazine]
number and area of plaques in contrast with DMEM group (T. gondii tachyzoites [1]): significantly reduced | plaques compared to DMEM group (T. gondii tachyzoites [1]): no obvious plaque | survival time of mice compared to control group (RH strain of T. gondii): could not prolong the survival time | parasite load in peritoneal fluid and tissues compared to PBS group (T. gondii tachyzoites [2]): effectively inhibit the proliferation of tachyzoites in mice | expression of IFN-γ in spleen compared to PBS group (IFN-γ): promoted the expression | expression of IL-10 in spleen compared to PBS group (IL-10): inhibited the upregulation of IL-10 | expression of IL-4 in spleen compared to PBS group (IL-4): promoted IL-4 expression | expression of TNF-α in spleen compared to PBS group (TNF-α): promoted the expression | anti-Toxoplasma effect in vitro (Toxoplasma [3]): anti-Toxoplasma effect was also observed | anti-Toxoplasma effect in vivo (Toxoplasma [4]): anti-Toxoplasma effect was also observed
